In US20100144845A1, “OLIGONUCLEOTIDE SYSTEMS FOR TARGETED INTRACELLULAR DELIVERY” (Massachusetts Institute of Technology, priority 2006, published 2010):

Experiments:
[1] = system: LNCaP cells; experiment: MTT cell viability assay; assay type: cell-based; conditions: drug concentration 5 μM, Dox to RNA 1:1, treated approximately one hour, total of 72 hours
Description: (§1) Doxorubicin (Dox), a cytotoxic drug commonly used in chemotherapy that can dock into double-stranded portions of nucleic acids because of the stacking capacity of its many-ringed structure, was “loaded” onto oligonucleotides at a molar ratio of 1:1, Dox to RNA, e.g., as described in Bagalkot, V. et al., Angewandte Chemie (International ed 45, 8149-8152 (2006) (the drug concentration was 5 μM). MTT assays were performed essentially as previously described, e.g., in Akaishi, S. et al., The Tohoku Journal of Experimental Medicine 175, 29-42 (1995). Briefly, 100 μl aliquots of LNCaP or PC3 cells (5×10^3 cells/mL) were seeded in 24-well plates (n=5), allowed to grow overnight and treated, for approximately one hour, with 100 μL of either a) nothing; b) Dox alone; c) Dox conjugated with the initial library; d) Dox conjugated to the Rd-12 population of the LNCaP selection; or e) Dox conjugated to the Rd-12 population of the PC3 selection; then washed and further incubated, in fresh media, for a total of 72 hours. The cells were then washed twice with EBSS, treated with 50 μL MTT solution for 4 hours, and lysed with MTT-detergent overnight. The absorbance was measured the following day using micro-plate reader at 570 nm.

[2] = system: PC3 cells; experiment: MTT cell viability assay; assay type: cell-based; conditions: drug concentration 5 μM, Dox to RNA 1:1, treated approximately one hour, total of 72 hours
Description: as §1

Compound: COc1cccc2c1C(=O)c1c(O)c3c(c(O)c1C2=O)C[C@@](O)(C(=O)CO)C[C@@H]3O[C@H]1C[C@H](N)[C@H](O)[C@H](C)O1 [Dox, Doxorubicin]
- effectiveness (cytotoxicity) in MTT assay [1]: equipotent against PC3 and LNCaP cells
- effectiveness (cytotoxicity) in MTT assay [2]: equipotent against PC3 and LNCaP cells
